Data taken from patent US12508313B2, “Quinoline derivative-containing pharmaceutical composition” (Eisai R&D Management Co., Ltd., priority 2009, dated 2025).

Test: Storage stability of capsules, degradants determined by high-performance liquid chromatography
Assay type: physicochemical
Settings: Initial (before storage); HPLC
Procedure: The capsules in Examples 16 to 17 and Comparative Example 6 were stored for 1 week in an open system under an environment at a temperature of 60° C. and a relative humidity of 75%, followed by determining the production of the degradants with high-performance liquid chromatography. In the capsule formulation in Comparative Example 6, in which neither calcium carbonate nor magnesium carbonate was mixed, an amount of the degradants was increased. In contrast, in the capsules in Examples 16 to 17, in which calcium carbonate or magnesium carbonate was mixed, no increase in amount of the degradants was observed (Table 8).

Quantitated compound A (%): 98.38%
Compound: COc1cc2nccc(Oc3ccc(NC(=O)NC4CC4)c(Cl)c3)c2cc1C(N)=O.CS(=O)(=O)O [Compound A, 4-(3-chloro-4-(cyclopropylaminocarbonyl)aminophenoxy)-7-methoxy-6-quinolinecarboxamide methanesulfonate]
